Test: Excipient compatibility study (colour change / ascorbic acid degradation)
Assay type: physicochemical
Conditions: presence of metallic cations (such as Cu2+, Fe3+, Zn2+)
Experimental: Excipient compatibility studies with all excipients against Na picosulfate and ascorbic acid were carried out. Antioxidants like Na meta-bisulphite, Na bisulphite and Na sulphite were added. Further, the study was carried out to determine if citric acid helped stabilize the colour change of ascorbic acid. Samples were assessed at 1 week, 2 weeks, 4 weeks and at 8 weeks.
Tertiary mixtures with components (250 mg MgO+500 mg AA+25 mg Sulphites (or 100 mg Acids) • MgO+ascorbic acid+Na meta-sulphite • MgO+ascorbic acid+Na bisulphite • MgO+ascorbic acid+Na sulphite • MgO+ascorbic acid+citric acid • MgO+ascorbic acid+tartaric acid • MgO+sodium ascorbate+Na meta-sulphite • MgO+sodium ascorbate+Na bisulphite • MgO+sodium ascorbate+Na sulphite • MgO+sodium ascorbate+citric acid • MgO+sodium ascorbate+tartaric acid Quaternary mixtures with components ((250 m, MgO+500 mg AA+20 mg NaP+25 Sulphites (or 100 mg acids) • MgO+Na picosulfate+ascorbic acid+Na meta-sulphite • MgO+Na picosulfate+ascorbic acid+Na bisulphite • MgO+Na picosulfate+ascorbic acid+Na sulphite • MgO+Na picosulfate+ascorbic acid+citric acid • MgO+Na Picosulfate+ascorbic acid+tartaric acid
Binary, tertiary and quaternary mixtures of the API and excipients at various ratios were prepared as follows: • 1. […] Add approximately half of the excipient quantity into a container. • 3. […]

With `O=C1O[C@H]([C@@H](O)CO)C(O)=C1O` [ascorbic acid] the “Degradation of ascorbic acid with excipients” value was “degrades in the presence of metallic cations”.

— patent US11058671B2, “Formulations and methods of manufacturing formulations for use in colonic evacuation” (RedHill Biopharma Ltd., priority 2012, dated 2021)
